What follows are compounds tested against T1, PD-1/PD-L1 (Homo sapiens, UniProt Q9NZQ7) (assay: PD-1/PD-L1 Homogenous Time-Resolved Fluorescence (HTRF) binding assay). Conditions: PD-L1-His 10 nM, PD-1-Ig 20 nM.
T1 construct: TVMV protease site linker (C); made in house; host or cells: HEK293T cells
Procedure, shortened: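 Time-resolved FRET read-out using Eu-cryptate anti-Ig (1 nM final) and APC anti-His (20 nM final). Tagged extracellular domains were used in BSA/Tween-20-supplemented dPBS, with compound pre-incubated 15 min with PD-L1-His (10 nM) before PD-1-Ig (20 nM) was added for 15 min. Other human pairs: PD-L2-His 5 nM with PD-1-Ig 20 nM; PD-L1-Ig 10 nM with CD80-His 100 nM.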

T1 sequence (Q9NZQ7 18-239): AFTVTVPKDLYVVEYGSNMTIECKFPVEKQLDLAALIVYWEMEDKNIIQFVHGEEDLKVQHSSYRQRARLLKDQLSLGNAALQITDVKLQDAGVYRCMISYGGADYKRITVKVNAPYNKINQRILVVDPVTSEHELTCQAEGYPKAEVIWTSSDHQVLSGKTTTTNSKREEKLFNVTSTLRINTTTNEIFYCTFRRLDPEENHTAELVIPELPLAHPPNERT

Row | Structure (SMILES) | IC50
1 | Cc1c(COc2cc(OCc3cncc(C#N)c3)c(CNCc3c[nH]cn3)cc2Cl)cccc1-c1cccc(OCc2cncnc2)c1Cl [Example 2062, 5-((2-((((1H-imidazol-4-yl)methyl)amino)methyl)-4-chloro-5-((2′-chloro-2-methyl-3′-(pyrimidin-5-ylmethoxy)-[1,1′-biphenyl]-3-yl)methoxy)phenoxy)methyl)nicotinonitrile] | 7.6 nM
2 | Cc1c(COc2cc(OCc3cncc(C#N)c3)c(CN3CCc4[nH]cnc4C3)cc2Cl)cccc1-c1cccc(OCC2CCCN(C)C2)c1Cl (stereo not drawn) [Example 2583, 5-((4-chloro-5-((2′-chloro-2-methyl-3′-((1-methylpiperidin-3-yl)methoxy)-[1,1′-biphenyl]-3-yl)methoxy)-2-((1,4,6,7-tetrahydro-5H-imidazo[4,5-c]pyridin-5-yl)methyl)phenoxy)methyl)nicotinonitrile] | 2.3 nM
3 | Cc1c(COc2cc(OCc3cncc(C#N)c3)c(CN3CCCCC3c3nc(=O)[nH][nH]3)cc2Cl)cccc1-c1cccc(OCCCN2CC[C@@H](O)C2)c1C (stereo partly drawn) [Example 1010, 5-((4-Chloro-5-((3′-(3-((R)-3-hydroxypyrrolidin-1-yl)propoxy)-2,2′-dimethyl-[1,1′-biphenyl]-3-yl)methoxy)-2-((2-(5-oxo-2,5-dihydro-1H-1,2,4-triazol-3-yl)piperidin-1-yl)-methyl)phenoxy)methyl)nicotinonitrile] | 5.3 nM
4 | Cc1c(COc2cc(OCc3cncc(C#N)c3)c(CNCc3cncs3)cc2Cl)cccc1-c1cccc(OCC2CCCN(C)C2)c1Cl (stereo not drawn) [Example 2576, 5-((4-chloro-5-((2′-chloro-2-methyl-3′-((1-methylpiperidin-3-yl)methoxy)-[1,1′-biphenyl]-3-yl)methoxy)-2-(((thiazol-5-ylmethyl)amino)methyl)phenoxy)methyl)nicotinonitrile] | 2.5 nM
5 | CCN(CCO)CCCOc1cccc(-c2cccc(COc3cc(OCc4cncc(C#N)c4)c(CNCc4c[nH]cn4)cc3Cl)c2C)c1C [Example 2033, 5-((2-((((1H-imidazol-4-yl)methyl)amino)methyl)-4-chloro-5-((3′-(3-(ethyl(2-hydroxyethyl)amino)propoxy)-2,2′-dimethyl-[1,1′-biphenyl]-3-yl)methoxy)phenoxy)methyl)nicotinonitrile] | 2.9 nM
6 | Cc1nc(CN(C)Cc2cc(Cl)c(OCc3cccc(-c4cccc(OCCCN5CC[C@@H](O)C5)c4C)c3C)cc2OCc2cncc(C#N)c2)no1 [Example 2545, (R)-5-((4-chloro-5-((3′-(3-(3-hydroxypyrrolidin-1-yl)propoxy)-2,2′-dimethyl-[1,1′-biphenyl]-3-yl)methoxy)-2-((methyl((5-methyl-1,2,4-oxadiazol-3-yl)methyl)amino)methyl)phenoxy)methyl)nicotinonitrile] | 11.9 nM
7 | Cc1cc(CNCc2cc(Cl)c(OCc3cccc(-c4cccc(OCCCN5CC[C@@H](O)C5)c4C)c3C)cc2OCc2cncc(C#N)c2)no1 [Example 2528, (R)-5-((4-chloro-5-((3′-(3-(3-hydroxypyrrolidin-1-yl)propoxy)-2,2′-dimethyl-[1,1′-biphenyl]-3-yl)methoxy)-2-((((5-methylisoxazol-3-yl)methyl)amino)methyl)phenoxy)methyl)nicotinonitrile] | 3.1 nM
8 | Cc1c(COc2cc(OCc3cncc(C#N)c3)c(CN(C)Cc3cc(C4CC4)on3)cc2Cl)cccc1-c1cccc(OCCCN2CC[C@@H](O)C2)c1C [Example 2552, (R)-5-((4-chloro-2-((((5-cyclopropylisoxazol-3-yl)methyl)(methyl)amino)methyl)-5-((3′-(3-(3-hydroxypyrrolidin-1-yl)propoxy)-2,2′-dimethyl-[1,1′-biphenyl]-3-yl)methoxy)phenoxy)methyl)nicotinonitrile] | 7.3 nM
9 | Cc1c(COc2cc(OCc3cncc(C#N)c3)c(CNCc3cn[nH]c3)cc2Cl)cccc1-c1cccc(OC2CCC(N3CCCC3)CC2)c1Cl (stereo not drawn) [Example 2052, 5-((2-((((1H-pyrazol-4-yl)methyl)amino)methyl)-4-chloro-5-((2′-chloro-2-methyl-3′-((4-(pyrrolidin-1-yl)cyclohexyl)oxy)-[1,1′-biphenyl]-3-yl)methoxy)phenoxy)methyl)nicotinonitrile] | 9.6 nM
10 | Cc1c(COc2cc(OCc3cncc(C#N)c3)c(CN3CCc4c(cnn4-c4ccccc4)C3)cc2Cl)cccc1-c1cccc(OCCCN2CC[C@@H](O)C2)c1C [Example 2567, (R)-5-((4-chloro-5-((3′-(3-(3-hydroxypyrrolidin-1-yl)propoxy)-2,2′-dimethyl-[1,1′-biphenyl]-3-yl)methoxy)-2-((1-phenyl-1,4,6,7-tetrahydro-5H-pyrazolo[4,3-c]pyridin-5-yl)methyl)phenoxy)methyl)nicotinonitrile] | 22.8 nM

The next compounds have a lower IC50 than those just listed; values first:

Row | IC50 | Structure (SMILES)
11 | 1.4 nM | Cc1c(COc2cc(OCc3cncc(C#N)c3)c(CNCc3ccnc(C#N)n3)cc2Cl)cccc1-c1cccc(OCCCN2CCC(O)(CO)CC2)c1Cl [Example 2044, 4-(((5-chloro-4-((2′-chloro-3′-(3-(4-hydroxy-4-(hydroxymethyl)piperidin-1-yl)propoxy)-2-methyl-[1,1′-biphenyl]-3-yl)methoxy)-2-((5-cyanopyridin-3-yl)methoxy)benzyl)amino)methyl)pyrimidine-2-carbonitrile]
12 | 0.9 nM | Cc1c(COc2cc(OCc3cncc(C#N)c3)c(CN3CCc4[nH]ncc4C3)cc2Cl)cccc1-c1cccc(OCC2CCCN(C)C2)c1Cl (stereo not drawn) [Example 2587, 5-((4-chloro-5-((2′-chloro-2-methyl-3′-((1-methylpiperidin-3-yl)methoxy)-[1,1′-biphenyl]-3-yl)methoxy)-2-((1,4,6,7-tetrahydro-5H-pyrazolo[4,3-c]pyridin-5-yl)methyl)phenoxy)methyl)nicotinonitrile]
13 | 1.5 nM | Cc1c(COc2cc(OCc3cncc(C#N)c3)c(CN3CCCC3c3ccn[nH]3)cc2Cl)cccc1-c1cccc(OCC2CCCN(C)C2)c1Cl (stereo not drawn) [Example 1026, 5-((2-((2-(1H-Pyrazol-5-yl)pyrrolidin-1-yl)methyl)-4-chloro-5-((2′-chloro-2-methyl-3′-((1-methylpiperidin-3-yl)methoxy)-[1,1′-biphenyl]-3-yl)methoxy)phenoxy)methyl)-nicotinonitrile]
14 | 0.7 nM | Cc1c(COc2cc(OCc3cncc(C#N)c3)c(CN3CCCCC3c3nnn[nH]3)cc2Cl)cccc1-c1cccc(OCCCN2CC[C@@H](O)C2)c1C (stereo partly drawn) [Example 1012, 5-((2-((2-(1H-Tetrazol-5-yl)piperidin-1-yl)methyl)-4-chloro-5-((3′-(3-((R)-3-hydroxy-pyrrolidin-1-yl)propoxy)-2,2′-dimethyl-[1,1′-biphenyl]-3-yl)methoxy)phenoxy)methyl)-nicotinonitrile]
15 | 1.6 nM | Cc1c(COc2cc(OCc3cncc(C#N)c3)c(CN(C)Cc3cocn3)cc2Cl)cccc1-c1cccc(OCCCN2CC[C@@H](O)C2)c1C [Example 2544, (R)-5-((4-chloro-5-((3′-(3-(3-hydroxypyrrolidin-1-yl)propoxy)-2,2′-dimethyl-[1,1′-biphenyl]-3-yl)methoxy)-2-((methyl(oxazol-4-ylmethyl)amino)methyl)phenoxy)methyl)nicotinonitrile]
16 | 2.2 nM | Cc1c(COc2cc(OCc3cncc(C#N)c3)c(CN(C)Cc3cn[nH]c3)cc2Cl)cccc1-c1cccc(OCCCN2CC[C@@H](O)C2)c1C [Example 2525, (R)-5-((2-((((1H-pyrazol-4-yl)methyl)(methyl)amino)methyl)-4-chloro-5-((3′-(3-(3-hydroxypyrrolidin-1-yl)propoxy)-2,2′-dimethyl-[1,1′-biphenyl]-3-yl)methoxy)phenoxy)methyl)nicotinonitrile]
17 | 1.9 nM | Cc1c(COc2cc(OCc3cncc(C#N)c3)c(CN(C)Cc3nnn[nH]3)cc2Cl)cccc1-c1cccc(OCCCN2CC[C@@H](O)C2)c1C [Example 1016, (R)-5-((2-((((1H-Tetrazol-5-yl)methyl)(methyl)amino)methyl)-4-chloro-5-((3′-(3-(3-hydroxypyrrolidin-1-yl)propoxy)-2,2′-dimethyl-[1,1′-biphenyl]-3-yl)methoxy)phenoxy)-methyl)nicotinonitrile]
18 | 0.8 nM | Cc1c(COc2cc(OCc3cncc(C#N)c3)c(CNCc3ccnn3C)cc2Cl)cccc1-c1cccc(OCCCN2CC[C@@H](O)C2)c1C [Example 2556, (R)-5-((4-chloro-5-((3′-(3-(3-hydroxypyrrolidin-1-yl)propoxy)-2,2′-dimethyl-[1,1′-biphenyl]-3-yl)methoxy)-2-((((1-methyl-1H-pyrazol-5-yl)methyl)amino)methyl)phenoxy)methyl)nicotinonitrile]
19 | 1.9 nM | Cc1c(COc2cc(OCc3cncc(C#N)c3)c(CNCc3ccnc(C(N)=O)n3)cc2Cl)cccc1-c1cccc(OCCCN2CC[C@@H](O)C2)c1C [Example 2041, (R)-4-(((5-chloro-2-((5-cyanopyridin-3-yl)methoxy)-4-((3′-(3-(3-hydroxypyrrolidin-1-yl)propoxy)-2,2′-dimethyl-[1,1′-biphenyl]-3-yl)methoxy)benzyl)amino)methyl)pyrimidine-2-carboxamide]
20 | 1.4 nM | Cc1c(COc2cc(OCc3cncc(C#N)c3)c(CN3CCCC(c4ncc[nH]4)C3)cc2Cl)cccc1-c1cccc(OCCCN2CC[C@@H](O)C2)c1C (stereo partly drawn) [Example 1003, 5-((2-((3-(1H-Imidazol-2-yl)piperidin-1-yl)methyl)-4-chloro-5-((3′-(3-((R)-3-hydroxy-pyrrolidin-1-yl)propoxy)-2,2′-dimethyl-[1,1′-biphenyl]-3-yl)methoxy)phenoxy)methyl)-nicotinonitrile]
21 | 0.7 nM | CC(=O)NC1CCN(CCCOc2cccc(-c3cccc(COc4cc(OCc5cncc(C#N)c5)c(CNCc5nnn[nH]5)cc4Cl)c3C)c2Cl)CC1 [Example 1057, N-(1-(3-((3′-((4-((((1H-Tetrazol-5-yl)methyl)amino)methyl)-2-chloro-5-((5-cyano-pyridin-3-yl)methoxy)phenoxy)methyl)-2-chloro-2′-methyl-[1,1′-biphenyl]-3-yl)oxy)-propyl)piperidin-4-yl)acetamide]

— US20240124417A1, “COMPOUNDS USEFUL AS IMMUNOMODULATORS” (Bristol-Myers Squibb Company, priority 2019, published 2024)
